Legend:
CYP2C19 = CYP2C19 (Homo sapiens, UniProt P33261); experiment: CYP inhibition CYP2C19; assay type: in vitro ADME
Description: (§1) As the compound of example 2 has shown an impressive activity in the in vitro LasB inhibition assay, high selectivity over a broad spectrum of human enzymes and no signs of cytotoxicity in vitro, it has been subjected to a more advanced safety screening (Table 9).

ADAM17 (TACE) = ADAM17 (TACE) (Homo sapiens, UniProt P78536); experiment: Selectivity against human off-targets: ADAM17 (TACE); assay type: biochemical; settings: read-out: IC50 ADAM17 (TACE)
Chain of ADAM17 (TACE) (P78536 215-824): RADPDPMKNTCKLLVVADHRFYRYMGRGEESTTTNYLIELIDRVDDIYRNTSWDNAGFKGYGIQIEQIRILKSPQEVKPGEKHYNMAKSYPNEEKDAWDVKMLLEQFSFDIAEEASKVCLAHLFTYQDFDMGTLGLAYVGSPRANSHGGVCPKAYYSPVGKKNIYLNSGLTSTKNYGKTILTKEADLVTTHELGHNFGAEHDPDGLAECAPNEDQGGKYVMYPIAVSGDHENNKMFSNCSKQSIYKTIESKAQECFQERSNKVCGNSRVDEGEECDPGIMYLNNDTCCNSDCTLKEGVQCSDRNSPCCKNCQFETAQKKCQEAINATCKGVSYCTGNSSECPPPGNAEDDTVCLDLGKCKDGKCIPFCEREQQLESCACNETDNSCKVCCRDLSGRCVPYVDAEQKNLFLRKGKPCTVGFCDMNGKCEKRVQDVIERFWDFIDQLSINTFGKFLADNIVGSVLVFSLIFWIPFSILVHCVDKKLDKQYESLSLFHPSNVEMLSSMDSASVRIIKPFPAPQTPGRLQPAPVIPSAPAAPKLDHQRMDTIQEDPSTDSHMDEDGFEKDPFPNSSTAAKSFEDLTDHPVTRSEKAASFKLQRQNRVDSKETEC

[1] = mini-Ames reverse mutation assay; assay type: cell-based; settings: up to 125 μg/mL
Description: as §1

CYP2C9 = CYP2C9 (Homo sapiens, UniProt P11712); experiment: CYP inhibition CYP2C9; assay type: in vitro ADME
Chain of CYP2C9 (P11712 whole entry): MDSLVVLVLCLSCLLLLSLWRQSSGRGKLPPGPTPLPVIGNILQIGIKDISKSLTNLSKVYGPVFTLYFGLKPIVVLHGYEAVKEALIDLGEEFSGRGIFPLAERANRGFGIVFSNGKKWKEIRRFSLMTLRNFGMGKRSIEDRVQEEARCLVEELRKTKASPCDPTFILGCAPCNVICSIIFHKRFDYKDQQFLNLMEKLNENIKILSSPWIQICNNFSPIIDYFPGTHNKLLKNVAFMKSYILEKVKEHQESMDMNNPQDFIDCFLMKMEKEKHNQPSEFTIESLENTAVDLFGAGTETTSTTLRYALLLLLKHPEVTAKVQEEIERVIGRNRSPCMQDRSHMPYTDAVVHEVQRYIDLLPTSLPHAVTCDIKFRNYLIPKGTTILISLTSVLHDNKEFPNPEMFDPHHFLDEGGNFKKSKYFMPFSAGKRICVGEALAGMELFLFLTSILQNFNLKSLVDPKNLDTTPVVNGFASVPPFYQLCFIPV
Description: as §1

HDAC-3 = HDAC-3 (Homo sapiens, UniProt O15379); experiment: Selectivity against human off-targets: HDAC-3; assay type: biochemical; settings: read-out: IC50 HDAC-3
Chain of HDAC-3 (O15379 whole entry): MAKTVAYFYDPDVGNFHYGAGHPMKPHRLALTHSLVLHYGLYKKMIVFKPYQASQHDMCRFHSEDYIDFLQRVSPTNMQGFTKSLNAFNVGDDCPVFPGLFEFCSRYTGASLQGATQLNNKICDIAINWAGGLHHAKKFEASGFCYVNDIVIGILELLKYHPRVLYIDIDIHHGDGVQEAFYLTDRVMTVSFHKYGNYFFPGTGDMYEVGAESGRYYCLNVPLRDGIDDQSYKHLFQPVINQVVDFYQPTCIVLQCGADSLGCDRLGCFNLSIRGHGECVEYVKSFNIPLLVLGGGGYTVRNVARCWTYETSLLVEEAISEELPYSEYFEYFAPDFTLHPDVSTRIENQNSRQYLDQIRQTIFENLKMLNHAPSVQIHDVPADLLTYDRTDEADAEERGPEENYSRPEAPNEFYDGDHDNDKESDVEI
Chain of HDAC-3 (Q9Y618 395-489 partner limits assumed): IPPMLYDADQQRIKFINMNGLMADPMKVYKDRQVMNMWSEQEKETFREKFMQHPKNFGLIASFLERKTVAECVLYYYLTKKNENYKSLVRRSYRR
Description: (§2) The inhibition of zinc-containing human enzymes is described frequently for LasB inhibitors and poses a serious difficulty in the development of selective compounds. Particularly, the inhibition of matrix metalloproteases (MMPs) should be avoided. To further investigate this issue, three derivatives (the compounds of examples 1, 5 and 8) have been tested for their selectivity against several human off-targets, including six MMPs, ADAM17 (TACE), HDAC-3 and HDAC-8 (Table 4). The selectivity of the compounds is particularly high for MMPs and HDACs, whereas the inhibition of ADAM17 was considerably stronger.

MMP-7 = target: T1, MMP-7 (Homo sapiens, UniProt P09237); experiment: Selectivity against human off-targets: MMP-7; assay type: biochemical; settings: read-out: Inhibition [%] MMP-7
T1 sequence (P09237 95-267): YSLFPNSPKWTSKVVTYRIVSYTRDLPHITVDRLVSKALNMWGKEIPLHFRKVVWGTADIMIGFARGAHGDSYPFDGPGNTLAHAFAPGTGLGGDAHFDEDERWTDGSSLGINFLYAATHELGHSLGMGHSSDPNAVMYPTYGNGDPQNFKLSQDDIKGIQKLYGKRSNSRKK
Description: as §2

[2] = Pharmacokinetic (PK) studies in mice; assay type: in vivo; settings: 10 mg/kg
Method: Moreover, the compound of example 2 was subjected to pharmacokinetic (PK) studies in mice (Table 10). Injected intravenously (i.v.) at a dose of 10 mg/kg, it is detectable in blood for 2 h.

hERG potassium channel = hERG potassium channel (Homo sapiens, UniProt Q12809); experiment: hERG inhibition; assay type: biochemical
Chain of hERG potassium channel (Q12809 whole entry): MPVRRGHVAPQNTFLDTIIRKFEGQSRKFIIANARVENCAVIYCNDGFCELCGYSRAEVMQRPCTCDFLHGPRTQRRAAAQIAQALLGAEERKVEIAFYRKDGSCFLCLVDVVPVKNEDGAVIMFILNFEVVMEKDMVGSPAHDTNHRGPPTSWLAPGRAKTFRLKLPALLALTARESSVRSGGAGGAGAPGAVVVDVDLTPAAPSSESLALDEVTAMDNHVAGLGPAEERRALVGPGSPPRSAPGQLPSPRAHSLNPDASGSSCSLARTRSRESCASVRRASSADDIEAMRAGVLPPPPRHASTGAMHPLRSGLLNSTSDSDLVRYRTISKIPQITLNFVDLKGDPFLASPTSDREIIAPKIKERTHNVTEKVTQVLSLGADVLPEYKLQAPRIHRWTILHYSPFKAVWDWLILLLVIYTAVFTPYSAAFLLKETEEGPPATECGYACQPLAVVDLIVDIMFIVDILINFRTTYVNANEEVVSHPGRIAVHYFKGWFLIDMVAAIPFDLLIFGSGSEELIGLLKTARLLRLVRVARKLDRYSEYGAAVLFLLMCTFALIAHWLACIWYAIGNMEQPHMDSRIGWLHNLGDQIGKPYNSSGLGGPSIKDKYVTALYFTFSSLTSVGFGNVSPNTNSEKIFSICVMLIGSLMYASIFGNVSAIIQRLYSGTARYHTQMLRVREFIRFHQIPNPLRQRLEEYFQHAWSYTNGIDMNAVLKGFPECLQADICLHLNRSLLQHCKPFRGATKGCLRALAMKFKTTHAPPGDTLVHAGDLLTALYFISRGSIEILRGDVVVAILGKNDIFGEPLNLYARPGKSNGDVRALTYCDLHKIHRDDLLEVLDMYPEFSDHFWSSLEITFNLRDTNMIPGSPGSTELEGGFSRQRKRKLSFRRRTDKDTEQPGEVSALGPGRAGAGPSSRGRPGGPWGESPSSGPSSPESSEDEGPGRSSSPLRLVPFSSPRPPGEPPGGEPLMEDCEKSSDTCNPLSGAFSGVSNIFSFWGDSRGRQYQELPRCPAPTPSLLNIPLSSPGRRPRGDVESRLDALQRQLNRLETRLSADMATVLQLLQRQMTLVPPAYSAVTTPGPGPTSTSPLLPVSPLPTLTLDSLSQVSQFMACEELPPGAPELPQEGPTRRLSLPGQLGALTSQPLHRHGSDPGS
Description: as §1

LasB = LasB (Pseudomonas aeruginosa, UniProt Q02RJ6); experiment: biochemical; set-up: species or system P. aeruginosa; settings: IC50 against LasB
Chain of LasB (Q02RJ6 198-498): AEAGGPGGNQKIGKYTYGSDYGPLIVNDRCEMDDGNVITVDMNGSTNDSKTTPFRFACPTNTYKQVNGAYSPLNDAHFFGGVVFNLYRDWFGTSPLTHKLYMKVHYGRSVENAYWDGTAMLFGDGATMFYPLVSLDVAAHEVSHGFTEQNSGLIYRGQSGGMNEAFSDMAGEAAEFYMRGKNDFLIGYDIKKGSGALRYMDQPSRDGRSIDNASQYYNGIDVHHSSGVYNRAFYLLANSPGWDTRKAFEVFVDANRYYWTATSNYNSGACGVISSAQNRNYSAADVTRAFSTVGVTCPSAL

MMP-14 = MMP-14 (Homo sapiens, UniProt P50281); experiment: Selectivity against human off-targets: MMP-14; assay type: biochemical; settings: read-out: Inhibition [%] MMP-14
Description: as §2

Cytotoxicity HEK293 = assay type: cell-based; settings: human; HEK293
Method: The compounds of examples 1 and 5 were not toxic against the cell lines HepG2, HEK293 and A549 (Table 5). Additionally, the inhibitory effect against P. aeruginosa PA14 was evaluated to exclude an antibacterial effect of the compounds of the present invention. This is important as it was the aim to target virulence and not viability of the bacteria. […]

HDAC-8 = target: T2, HDAC-8 (Homo sapiens, UniProt Q9BY41); experiment: Selectivity against human off-targets: HDAC-8; assay type: biochemical; settings: read-out: IC50 HDAC-8
T2 sequence (Q9BY41 1-377): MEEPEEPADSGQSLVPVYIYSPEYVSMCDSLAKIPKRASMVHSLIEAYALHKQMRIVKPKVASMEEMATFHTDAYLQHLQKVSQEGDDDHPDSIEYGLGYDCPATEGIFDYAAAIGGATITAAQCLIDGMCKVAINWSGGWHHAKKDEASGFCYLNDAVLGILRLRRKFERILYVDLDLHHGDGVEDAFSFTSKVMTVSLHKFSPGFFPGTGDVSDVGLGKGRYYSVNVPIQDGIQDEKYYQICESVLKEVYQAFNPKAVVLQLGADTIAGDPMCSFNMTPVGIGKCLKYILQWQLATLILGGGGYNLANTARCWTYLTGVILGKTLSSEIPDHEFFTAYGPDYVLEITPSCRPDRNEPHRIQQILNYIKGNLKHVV
Description: as §2

MMP-2 = target: T3, MMP-2 (Homo sapiens, UniProt P08253); experiment: Selectivity against human off-targets: MMP-2; assay type: biochemical; settings: read-out: Inhibition [%] MMP-2
T3 sequence (P08253 110-660): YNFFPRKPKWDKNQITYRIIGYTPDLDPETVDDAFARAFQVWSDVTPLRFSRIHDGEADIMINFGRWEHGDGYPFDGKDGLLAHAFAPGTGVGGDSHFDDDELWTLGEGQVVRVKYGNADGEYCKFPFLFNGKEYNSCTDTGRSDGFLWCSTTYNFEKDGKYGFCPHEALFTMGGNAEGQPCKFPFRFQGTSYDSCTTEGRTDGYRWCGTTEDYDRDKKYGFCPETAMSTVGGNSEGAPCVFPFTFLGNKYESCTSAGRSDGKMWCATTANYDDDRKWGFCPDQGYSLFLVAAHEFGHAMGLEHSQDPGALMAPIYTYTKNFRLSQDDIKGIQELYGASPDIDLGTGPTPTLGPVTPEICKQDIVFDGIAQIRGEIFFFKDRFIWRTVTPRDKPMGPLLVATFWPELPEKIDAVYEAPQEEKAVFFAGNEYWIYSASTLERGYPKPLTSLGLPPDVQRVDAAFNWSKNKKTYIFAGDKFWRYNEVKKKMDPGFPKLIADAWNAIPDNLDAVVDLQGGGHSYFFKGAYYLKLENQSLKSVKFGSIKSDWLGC
Description: as §2

CYP3A4 = CYP3A4 (Homo sapiens, UniProt P08684); experiment: CYP inhibition CYP3A4; assay type: in vitro ADME
Chain of CYP3A4 (P08684 whole entry): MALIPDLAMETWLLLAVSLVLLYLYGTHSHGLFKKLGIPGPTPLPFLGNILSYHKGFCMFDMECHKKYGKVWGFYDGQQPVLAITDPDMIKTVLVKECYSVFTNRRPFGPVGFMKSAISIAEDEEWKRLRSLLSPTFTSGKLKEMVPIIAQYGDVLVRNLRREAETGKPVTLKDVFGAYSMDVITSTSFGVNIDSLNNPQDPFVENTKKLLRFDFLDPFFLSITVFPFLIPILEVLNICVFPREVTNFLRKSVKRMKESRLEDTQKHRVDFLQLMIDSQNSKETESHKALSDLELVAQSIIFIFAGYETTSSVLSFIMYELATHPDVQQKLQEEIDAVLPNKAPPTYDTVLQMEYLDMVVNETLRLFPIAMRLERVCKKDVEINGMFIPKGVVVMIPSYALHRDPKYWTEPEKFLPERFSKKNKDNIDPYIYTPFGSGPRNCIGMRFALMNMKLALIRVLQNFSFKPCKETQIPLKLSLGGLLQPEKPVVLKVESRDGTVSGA
Description: as §1

MMP-8 = MMP-8 (Homo sapiens, UniProt P22894); experiment: Selectivity against human off-targets: MMP-8; assay type: biochemical; settings: read-out: Inhibition [%] MMP-8
Chain of MMP-8 (P22894 101-467): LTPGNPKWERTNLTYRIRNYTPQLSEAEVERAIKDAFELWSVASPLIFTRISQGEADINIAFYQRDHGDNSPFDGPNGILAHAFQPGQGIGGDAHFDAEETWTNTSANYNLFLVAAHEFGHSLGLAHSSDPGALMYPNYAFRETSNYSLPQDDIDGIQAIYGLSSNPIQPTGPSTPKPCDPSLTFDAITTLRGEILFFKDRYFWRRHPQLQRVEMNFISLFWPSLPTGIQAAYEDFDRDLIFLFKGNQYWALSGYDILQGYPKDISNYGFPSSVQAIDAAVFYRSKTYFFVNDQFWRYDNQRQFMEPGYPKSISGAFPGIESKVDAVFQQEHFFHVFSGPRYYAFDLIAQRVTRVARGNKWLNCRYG
Description: as §2

Chain of CYP2C19 (P33261 whole entry): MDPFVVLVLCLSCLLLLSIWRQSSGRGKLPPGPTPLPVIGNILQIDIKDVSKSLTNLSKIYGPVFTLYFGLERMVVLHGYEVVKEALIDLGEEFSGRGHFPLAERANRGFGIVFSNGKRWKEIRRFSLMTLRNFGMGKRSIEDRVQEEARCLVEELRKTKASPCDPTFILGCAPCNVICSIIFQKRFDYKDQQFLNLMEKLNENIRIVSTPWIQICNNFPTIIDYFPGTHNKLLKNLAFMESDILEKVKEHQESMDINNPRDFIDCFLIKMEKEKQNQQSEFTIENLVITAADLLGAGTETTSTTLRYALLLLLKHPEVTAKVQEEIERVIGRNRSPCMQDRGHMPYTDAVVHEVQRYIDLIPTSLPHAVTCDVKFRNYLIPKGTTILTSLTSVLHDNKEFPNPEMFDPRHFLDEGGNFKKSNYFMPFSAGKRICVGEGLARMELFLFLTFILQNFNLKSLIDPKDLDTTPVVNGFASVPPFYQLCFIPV

Compound: Cc1ccc(NC(=O)C(S)CC(C)C)cc1 (stereo not shown) [Example 2, 2-Mercapto-4-methyl-N-(p-tolyl)pentanamide]
- IC50 (CYP2C19): 1 µM
- IC50 (ADAM17 (TACE)): 4.5 ± 1.8 µM
- melting point: 90 °C
- Mini-Ames genotoxicity [1]: no genotoxicity and No
- IC50 (CYP2C9): > 25 µM
- IC50 (HDAC-3): > 100 µM
- inhibition at 100 µM (MMP-7): < 10%
- CL/F ([2]; i.v.): 505 ± 119 mL/min/kg
- V/F ([2]; i.v.): 45.5 ± 2.8 L/kg
- time detectable in blood ([2]; i.v.): 2 h
- AUC(0-t) ([2]; mouse, blood, iv): 241 ± 22 ng·h/mL
- Cmax ([2]; mouse, blood, iv): 200 ng/mL
- half-life ([2]; mouse, blood, iv): 50 min
- Tmax ([2]; mouse, blood, iv, first measuring point): 15 min
- IC50 (hERG potassium channel): > 10 µM
- IC50 (LasB): 0.4 ± 0.13 µM
- inhibition at 100 µM (MMP-14): < 10%
- IC50 (Cytotoxicity HEK293): > 50 µM
- IC50 (HDAC-8): > 100 µM
- inhibition at 100 µM (MMP-2): < 10%
- IC50 (CYP3A4): 15 µM
- inhibition at 100 µM (MMP-8): < 10%

Reference: US20230321123A1, “INHIBITORS OF PSEUDOMONAS AERUGINOSA VIRULENCE FACTOR LasB” (Helmholtz-Zentrum Für Infektionsforschung GmbH, priority 2020, published 2023)
